Source: patent US10245275B2 (ViiV HEALTHCARE UK (NO.4) LIMITED, priority 2014, dated 2019)
Where two headings read alike, the source gives them in different places.

Assays:
[1] = test system: HIV-1 NL4-3 gag A364V virus; experiment: microbe, parasite or virus in culture; type: cell-based
Experimental: (§1) MT-2 cells and 293T cells were obtained from the NIH AIDS Research and Reference Reagent Program. MT-2 cells were propagated in RPMI 1640 media supplemented with 10% heat-inactivated fetal bovine serum, […]. The 293T cells were propagated in DMEM media supplemented with 10% heat-inactivated fetal bovine serum (FBS), 100 units/mL penicillin G and 100 μg/mL streptomycin. […] A recombinant NL4-3 virus, in which a section of the nef gene from NL4-3 was replaced with the Renilla luciferase gene, was used as a reference virus. In addition, residue Gag P373 was converted to P373S. […] Transfections were performed in 293T cells using LipofectAMINE PLUS from Invitrogen (Carlsbad, Calif.), according to manufacturer's instruction. The virus was titered in MT-2 cells using luciferase enzyme activity as a marker. Luciferase was quantitated using the Dual Luciferase kit from Promega (Madison, Wis.), with modifications to the manufacturer's protocol. The diluted Passive Lysis solution was pre-mixed with the re-suspended Luciferase Assay Reagent and the re-suspended Stop & Glo Substrate (2:1:1 ratio). Fifty (50) μL of the mixture was added to each aspirated well on assay plates and luciferase activity was measured immediately on a Wallac TriLux (Perkin-Elmer). Antiviral activities of inhibitors toward the recombinant virus were quantified by measuring luciferase activity in cells infected for 4-5 days with NLRluc recombinants in the presence serial dilutions of the inhibitor.
Both recombinant viruses were used as described above in the HIV cell culture assay for the NL4-3 virus.

[2] = test system: WT (wild-type HIV virus; recombinant NL4-3 virus); experiment: microbe, parasite or virus in culture; type: cell-based, HIV-1
Experimental: as §1
WT refers to wild-type HIV virus. […]

[3] = Human immunodeficiency virus 1, NL43, MT2, read-out: A364V (EC50, uM), Table 1 regular screen, MT-2 cells, luciferase readout
[4] = Human immunodeficiency virus 1, NL43, MT2, read-out: WT (EC50, uM), Table 1 regular screen, MT-2 cells, luciferase readout
[5] = Human immunodeficiency virus 1, NL43, MT2, read-out: A364V (EC50, uM), Table 1 regular screen, class symbol
[6] = Human immunodeficiency virus 1, NL43, MT2, read-out: WT (EC50, uM), Table 1 regular screen, class symbol

Structure (SMILES)	EC50 [1, 3] [µM]	EC50 [2, 4] [µM]	EC50 [1, 5] [µM]	EC50 [2, 6] [µM]	further results
C=C(C)[C@@H]1CC[C@]2(NC(CN)C(F)(F)F)CC[C@]3(C)[C@H](CC[C@@H]4[C@@]5(C)CC=C(C6=CC[C@](CF)(C(=O)O)CC6)C(C)(C)[C@@H]5CC[C@]43C)[C@@H]12 (single isomer, unassigned) [Example 40]	–	–	–	–	EC50 ([1]; read-out: A364V (EC50), Table 1 regular screen, MT-2 cells, luciferase readout): 3 µM; EC50 ([2]; read-out: WT (EC50), Table 1 regular screen, MT-2 cells, luciferase readout): 0.0687 µM
C=C(C)[C@@H]1CC[C@]2(NCCN3CCOCC3)CC[C@]3(C)[C@H](CC[C@@H]4[C@@]5(C)CC=C(C6=CC[C@](CF)(C(=O)O)CC6)C(C)(C)[C@@H]5CC[C@]43C)[C@@H]12 [Example 3, (S)-1-(fluoromethyl)-4-((1R,3aS,5aR,5bR,7aR,11aS,11bR,13aR,13bR)-5a,5b,8,8,11a-pentamethyl-3a-((2-morpholinoethyl)amino)-1-(prop-1-en-2-yl)-2,3,3a,4,5,5a,5b,6,7,7a,8,11,11a,11b,12,13,13a,13b-octadecahydro-1H-cyclopenta[a]chrysen-9-yl)cyclohex-3-enecarboxylic acid]	0.679	0.00453	–	–	–
C=C(C)[C@@H]1CC[C@]2(NCC[C@]3(O)CC[C@@](C)(O)CC3)CC[C@]3(C)[C@H](CC[C@@H]4[C@@]5(C)CC=C(C6=CC[C@](CF)(C(=O)O)CC6)C(C)(C)[C@@H]5CC[C@]43C)[C@@H]12 [Example 2-18, (S)-4-((1R,3aS,5aR,5bR,7aR,11aS,11bR,13aR,13bR)-3a-((2-((cis)-1,4-dihydroxy-4-methylcyclohexyl)ethyl)amino)-5a,5b,8,8,11a-pentamethyl-1-(prop-1-en-2-yl)-2,3,3a,4,5,5a,5b,6,7,7a,8,11,11a,11b,12,13,13a,13b-octadecahydro-1H-cyclopenta[a]chrysen-9-yl)-1-(fluoromethyl)cyclohex-3-enecarboxylic acid]	0.854	0.00165	–	–	–
C=C(C)[C@@H]1CC[C@]2(NCCN3CCS(=O)(=O)CC(C)C3)CC[C@]3(C)[C@H](CC[C@@H]4[C@@]5(C)CC=C(C6=CC[C@](CF)(C(=O)O)CC6)C(C)(C)[C@@H]5CC[C@]43C)[C@@H]12 (stereo partly drawn) [Example 27, (1S)-1-(fluoromethyl)-4-((1R,3aS,5aR,5bR,7aR,11aS,11bR,13aR,13bR)-5a,5b,8,8,11a-pentamethyl-3a-((2-(6-methyl-1,1-dioxido-1,4-thiazepan-4-yl)ethyl)amino)-1-(prop-1-en-2-yl)-2,3,3a,4,5,5a,5b,6,7,7a,8,11,11a,11b,12,13,13a,13b-octadecahydro-1H-cyclopenta[a]chrysen-9-yl)cyclohex-3-enecarboxylic acid]	–	–	> 0.05	< 0.05	–
C=C(C)[C@@H]1CC[C@]2(NCCS(=O)(=O)CCN3CCS(=O)(=O)CC3)CC[C@]3(C)[C@H](CC[C@@H]4[C@@]5(C)CC=C(C6=CC[C@](CF)(C(=O)O)CC6)C(C)(C)[C@@H]5CC[C@]43C)[C@@H]12 [Example 43, (S)-4-((1R,3aS,5aR,5bR,7aR,11aS,11bR,13aR,13bR)-3a-((2-((2-(1,1-dioxidothiomorpholino)ethyl)sulfonyl)ethyl)amino)-5a,5b,8,8,11a-pentamethyl-1-(prop-1-en-2-yl)-2,3,3a,4,5,5a,5b,6,7,7a,8,11,11a,11b,12,13,13a,13b-octadecahydro-1H-cyclopenta[a]chrysen-9-yl)-1-(fluoromethyl)cyclohex-3-enecarboxylic acid]	0.585	0.00335	–	–	–
C=C(C)[C@@H]1CC[C@]2(NCCN3CCN(C)C3=O)CC[C@]3(C)[C@H](CC[C@@H]4[C@@]5(C)CC=C(C6=CC[C@](CF)(C(=O)O)CC6)C(C)(C)[C@@H]5CC[C@]43C)[C@@H]12 [Example 2-26, (S)-1-(fluoromethyl)-4-((1R,3aS,5aR,5bR,7aR,11aS,11bR,13aR,13bR)-5a,5b,8,8,11a-pentamethyl-3a-((2-(3-methyl-2-oxoimidazolidin-1-yl)ethyl)amino)-1-(prop-1-en-2-yl)-2,3,3a,4,5,5a,5b,6,7,7a,8,11,11a,11b,12,13,13a,13b-octadecahydro-1H-cyclopenta[a]chrysen-9-yl)cyclohex-3-enecarboxylic acid]	–	–	> 0.05	< 0.05	–
C=C(C)[C@@H]1CC[C@]2(NCCC(C)C)CC[C@]3(C)[C@H](CC[C@@H]4[C@@]5(C)CC=C(C6=CC[C@](CF)(C(=O)O)CC6)C(C)(C)[C@@H]5CC[C@]43C)[C@@H]12 [Example 2-7, (S)-1-(fluoromethyl)-4-((1R,3aS,5aR,5bR,7aR,11aS,11bR,13aR,13bR)-3a-(isopentylamino)-5a,5b,8,8,11a-pentamethyl-1-(prop-1-en-2-yl)-2,3,3a,4,5,5a,5b,6,7,7a,8,11,11a,11b,12,13,13a,13b-octadecahydro-1H-cyclopenta[a]chrysen-9-yl)cyclohex-3-enecarboxylic acid]	3	0.116	–	–	–
C=C(C)[C@@H]1CC[C@]2(NCCC3(O)CCS(=O)(=O)CC3)CC[C@]3(C)[C@H](CC[C@@H]4[C@@]5(C)CC=C(C6=CC[C@](CF)(C(=O)O)CC6)C(C)(C)[C@@H]5CC[C@]43C)[C@@H]12 [Example 2-13, (S)-1-(fluoromethyl)-4-((1R,3aS,5aR,5bR,7aR,11aS,11bR,13aR,13bR)-3a-((2-(4-hydroxy-1,1-dioxidotetrahydro-2H-thiopyran-4-yl)ethyl)amino)-5a,5b,8,8,11a-pentamethyl-1-(prop-1-en-2-yl)-2,3,3a,4,5,5a,5b,6,7,7a,8,11,11a,11b,12,13,13a,13b-octadecahydro-1H-cyclopenta[a]chrysen-9-yl)cyclohex-3-enecarboxylic acid]	–	–	> 0.05	< 0.05	–
C=C(C)[C@@H]1CC[C@]2(NCC(O)CN3CCS(=O)(=O)CC3)CC[C@]3(C)[C@H](CC[C@@H]4[C@@]5(C)CC=C(C6=CC[C@](CF)(C(=O)O)CC6)C(C)(C)[C@@H]5CC[C@]43C)[C@@H]12 (stereo partly drawn) [Example 2-8, (1S)-4-((1R,3aS,5aR,5bR,7aR,11aS,11bR,13aR,13bR)-3a-((3-(1,1-dioxidothiomorpholino)-2-hydroxypropyl)amino)-5a,5b, 8,8,11a-pentamethyl-1-(prop-1-en-2-yl)-2,3,3a,4,5,5a,5b,6,7,7a,8,11,11a,11b,12,13,13a,13b-octadecahydro-1H-cyclopenta[a]chrysen-9-yl)-1-(fluoromethyl)cyclohex-3-enecarboxylic acid]	1.91	0.00233	–	–	–
C=C(C)[C@@H]1CC[C@]2(NCC(C)(C)O)CC[C@]3(C)[C@H](CC[C@@H]4[C@@]5(C)CC=C(C6=CC[C@](CF)(C(=O)O)CC6)C(C)(C)[C@@H]5CC[C@]43C)[C@@H]12 [Example 2-2, (S)-1-(fluoromethyl)-4-((1R,3aS,5aR,5bR,7aR,11aS,11bR,13aR,13bR)-3a-((2-hydroxy-2-methylpropyl)amino)-5a,5b,8,8,11a-pentamethyl-1-(prop-1-en-2-yl)-2,3,3a,4,5,5a,5b,6,7,7a,8,11,11a,11b,12,13,13a,13b-octadecahydro-1H-cyclopenta[a]chrysen-9-yl)cyclohex-3-enecarboxylic acid]	–	–	> 0.05	< 0.05	–
C=C(C)[C@@H]1CC[C@]2(NCC=C(C3CC3)C3CC3)CC[C@]3(C)[C@H](CC[C@@H]4[C@@]5(C)CC=C(C6=CC[C@](CF)(C(=O)O)CC6)C(C)(C)[C@@H]5CC[C@]43C)[C@@H]12 [Example 2-6, (S)-4-((1R,3aS,5aR,5bR,7aR,11aS,11bR,13aR,13bR)-3a-((3,3-dicyclopropylallyl)amino)-5a,5b,8,8,11a-pentamethyl-1-(prop-1-en-2-yl)-2,3,3a,4,5,5a,5b,6,7,7a,8,11,11a,11b,12,13,13a,13b-octadecahydro-1H-cyclopenta[a]chrysen-9-yl)-1-(fluoromethyl)cyclohex-3-enecarboxylic acid]	3	0.011	–	–	–
C=C(C)[C@@H]1CC[C@]2(NCCO)CC[C@]3(C)[C@H](CC[C@@H]4[C@@]5(C)CC=C(C6=CC[C@@](CF)(C(=O)O)CC6)C(C)(C)[C@@H]5CC[C@]43C)[C@@H]12 [Example 19, (R)-1-(fluoromethyl)-4-((1R,3aS,5aR,5bR,7aR,11aS,11bR,13aR,13bR)-3a-((2-hydroxyethyl)amino)-5a,5b,8,8,11a-pentamethyl-1-(prop-1-en-2-yl)-2,3,3a,4,5,5a,5b,6,7,7a,8,11,11a,11b,12,13,13a,13b-octadecahydro-1H-cyclopenta[a]chrysen-9-yl)cyclohex-3-enecarboxylic acid]	–	–	–	–	EC50 ([1]; Human immunodeficiency virus 1, NL43, MT2, read-out: A364V (EC50, uM)): > 0.05 µM; EC50 ([2]; Human immunodeficiency virus 1, NL43, MT2, read-out: WT (EC50, uM)): < 0.05 µM
